The term solubility denotes the dissolved amount per volume that the medium holds. One may read the half-life as how long it takes for the measured level to halve. Lower therefore signals rapid decline. Broadly, the microsomal CLint is the capacity of the preparation to metabolise the compound, expressed as a volume cleared per time. Lower therefore signals slow turnover.

Consider two molecules from patent US8193192B2, “Heterocyclic FXR binding compounds” (Phenex Pharmaceuticals AG, priority 2006, dated 2012).

Converted amounts (≈) assume the structure as drawn.

Data set [1] in a line: Aqueous solubility assay, Protocol B, shake-flask method. It is filed as physicochemical. The conditions noted are these: 10 mM PBS buffer with 1% MeOH, kinetic from dmso stock, 10 mM PBS buffer pH 7.4, 1% MeOH, room temperature, read-out: Aqueous solubility pH 7.4 (μM) (±standard deviation), shake-flask method. The protocol: Aqueous solubility of compounds was determined by nephelometry or by shake-flask method as follows:
Protocol B, Shake-Flask Method:
Sample preparation: Sample and standard solution preparation is performed by mixing equal volumes of acetonitrile containing the internal standard (1 μM final concentration) with sample and calibration standard solutions (100 μl). After vigorously shaking (10 seconds) the samples are centrifuged (6000 g) for 5 minutes at 20° C. Aliquots of the particle-free supernatants are transferred to 200 μl sample vials and subsequently subjected to LC-MS/MS analysis. Assay procedure: Test concentration was 100 μM in 10 mM PBS buffer pH 7.4 with a final MeOH concentration of 1%. The volume of the incubation solution was 500 μl. Depending on each compound's solubility in MeOH, the stock concentration and the incubation concentration was adapted. The test solutions in quadruplicates were shaken at 300 rpm over a 20 hours period at room temperature, followed by centrifugation at 20000 g for 30 minutes to separate the solid phase. 100 μl of particle free sample are added to 100 μl acetonitrile containing the internal standard. The aqueous solubility of the compounds was determined by measuring the concentration of the PBS buffer supernatant by HPLC-MS/MS. Aqueous solubilities of examples and reference compounds are listed below in Table 3.

Data set [2] is described as follows: Plasma protein binding assay, filtration method. It is filed as in vitro ADME. To be noted: lithium-heparin plasma, mouse plasma, 37° C., one hour, read-out: Plasma protein binding (%) (±standard deviation) (converted). The protocol: Plasma Protein Binding Assay
Plasma protein binding was determined using the filtration method:
Preparation of standards: working solutions were prepared for each calibration level by appropriate dilution of the corresponding stock solution. Calibration standards were prepared by spiking 147 μl PBS buffer with 3 μl of the corresponding working solution. Sample preparation: The sample and standard solution preparation was performed by mixing equal volumes of acetonitrile containing the internal standard (1 μM) with 75 μl sample, or 150 μl calibration standard solution, respectively. After vigorously shaking the samples were centrifuged (6000 g) for 5 minutes. Aliquots of the supernatants were subjected to LC-MS/MS analysis. Assay procedure: Compound stock solutions were diluted in acetonitrile to give a 50-fold concentrated working solution. The incubation solutions were prepared by adding 3 μl of a 50-fold concentrated working solution in acetonitrile to 147 μl of lithium-heparin plasma from mice giving an incubation concentration of 1 μM. […] The percentage of compound bound to plasma proteins (% PPB) was calculated using the following equation: PPB[%]=100−(concentrationcompound plasma filtrate/mean concentrationcompound filtrated plasma filtrate)×100.
Applying this protocol, plasmaprotein binding of examples and reference compounds was determined as listed below in Table 5.

Data set [3] in a line: Microsomal stability assay. It is filed as in vitro ADME. The conditions noted are these: pH 7.4; mouse liver microsomes, 37° C. Here is the method:
Microsomal Stability Assay
In vitro assays were performed to evaluate the metabolic stability of test items in liver microsomes originating from mouse. Preparation of working standards of test items: Working solutions were prepared for each calibration level by appropriate dilution of the corresponding stock solution, depending on each compound's solubility in acetonitrile or acetonitrile/water. Calibration standards were prepared by spiking 196 μl standard matrix with 4 μl of the corresponding working solution. The standard matrix consists of 0.15 mg/ml of microsomal protein in phosphate buffer (100 mM pH 7.4), the final standard solutions contain 2% acetonitrile. The samples and standard solutions were extracted with ethyl acetate, isolation of the compounds was performed by addition of 600 μl ethyl acetate containing the internal standard (0.1 μM) to 200 μl sample and calibration standard. After vigorously shaking (10 minutes) and centrifugation (5000 g) the aqueous phase was separated by freezing in an acetone/dry ice bath and the organic phase is evaporated to dryness using a vacuum centrifuge. Samples were reconstituted in 200 μl acetonitrile/water mix (1:1 v/v) and subsequently subjected to LC-MS/MS. The incubation solution (180 μl) consisted of 90 μl of a microsomal suspension of 0.33 mg/ml of protein in phosphate buffer 100 mM pH 7.4 and 90 μl NADP-regenerating system. The reaction was initiated by the addition of 20 μl of test compound (in 20% acetonitrile) to the preincubated microsomes/buffer mix at 37° C. 200 μl samples were removed from the incubation after 0, 5, 10, and 30 minutes and processed for ethyl acetate extraction as described above. Negative controls using boiled microsomes (boiling water bath, 25 minutes) without regenerating system were run in parallel. The amount of compound in the samples is expressed as percentage of remaining compound compared to time point zero (=100%). These percentages were plotted against the corresponding time points. Intrinsic clearance (CLint) and half-life (t1/2) estimates were determined using the rate of parent disappearance and following formula (1) and (2). (1) CLint=(−k)×V×fu. (2) t1/2=ln 2/−k. Where CLint=intrinsic clearance [μl/min/mg protein], t1/2=half life [min], k=slope from the linear regression of log [test compound] versus time plot [1/min]. V=6666.7; fu=unbound fraction in the blood. Applying this protocol gave microsomal stabilities for examples and reference compounds as listed below in Table 6: […]
In general terms: Microsomes from liver hold many membrane-bound enzymes, among them those of drug oxidation.

As to `Cc1cc(OCc2c(-c3c(Cl)cccc3Cl)noc2C(C)C)cnc1Oc1ccc(C(=O)O)cc1` [Example 3, 4-(5-((3-(2,6-Dichlorophenyl)-5-isopropylisoxazol-4-yl)methoxy)-3-methylpyridin-2-yloxy)benzoic acid], the solubility at 20 h in data set [1] was found to be 188 µM (≈ 96.5 µg/mL). For the same molecule, in data set [2], the fraction unbound at 1 h, 1 µM is 0.021. In data set [3], the half-life is 30 min and the microsomal CLint is 153 µL/min/mg.

Turning to `CC(C)c1onc(-c2c(Cl)cccc2Cl)c1COc1ccc(Oc2ccc(C(=O)O)cc2)cc1` [Compound A, reference compound], the solubility at 20 h in data set [1] is 72.4 µM (≈ 36.1 µg/mL). Also, the fraction unbound at 1 h, 1 µM in data set [2] was 0.007. Moreover, in data set [3], the half-life turned out to be 22 min and the microsomal CLint came out at 207 µL/min/mg.
